From US8494269B2, “Method and system for screening of a to-be-analyzed candidate as a skin-whitening agent” (National Sun Yat-Sen University, priority 2009, dated 2013)

Experiments:
zebrafish larvae [1] = assay: Zebrafish larvae skin-whitening screen, number of valid pixels by Image Scion; type: in vivo, zebrafish (Danio Rerio); conditions: for mean of the number of "valid pixels" versus concentration of the administered candidate: FIGS. 11, 12 and 13, 48 h exposure, Image Scion; for concentration giving statistically significant reduction of "valid pixels" in the images of the zebrafish vs control group: embryos exposed 48 h in Hank's buffer/DMSO, p<0.05, ANOVA followed by Duncan's method, Image Scion index 150-254; for conclusion of the screening as skin-whitening agent: second feature parameter smaller than the first with p<0.05
Procedure: The preparation of the zebrafish embryos was similar to, but with small modifications from, that disclosed in M. Westerfield (2007), The Zebrafish Book: A Guide for the Laboratory Use of Zebrafish (Danio Rerio), 5th edit. University of Oregon Press, Eugene, Oreg. First, one female fish and two male fish were put in a breeding tank having an acrylic grid under a water temperature of 28.5 degrees Celsius. Then, the breeding tank was made to undergo a first light-dark cycle of 14 hours of light and 10 hours of darkness. Subsequently, during the second light-dark cycle, the female fish and the male fish would respectively produce eggs and sperms for fertilization so as to obtain fertilized eggs. These fertilized eggs are referred to as fertilized eggs from “the same parental generation”. Next, after an hour, the fertilized eggs were removed from the breeding tank with a dropper, and were disposed in a Petri dish containing the Hank's buffer prepared according to the above-disclosed formula. Later, the Petri dish was disposed in an incubator (RI-80, FIRSTEK, Taiwan) under a controlled temperature of 28.5 degrees Celsius, and a controlled light-dark cycle of 14 hours of light and 10 hours of darkness for a 9-hour breeding process to allow development of the fertilized eggs into embryos. Subsequently, a Leica Z16 APO stereomicroscope (Leica, Heerbrugg, Switzerland) was used for the observation of the development of various embryos. Based on the observations, only well-developed embryos were kept for use in the experiments that followed.
First, arbutin (Sigma, Cat. No. A4256), N-phenylthiourea (Sigma, Cat. No. P7629) and kojic acid (Sigma, Cat. No. K3125) were respectively dissolved in a 2% dimethyl sulfoxide (DMSO) solution prepared from Hank's buffer to result in arbutin solutions with concentrations of 0.1 mM, 0.2 mM, 1 mM, 2 mM, 10 mM and 20 mM, N-phenylthiourea solutions with concentrations of 0.002 mM, 0.02 mM, 0.2 mM, 0.4 mM, 1 mM and 2 mM, and kojic acid solutions with concentrations of 0.2 mM, 1 mM, 2 mM, 20 mM, 40 mM and 100 mM, respectively. Next, each well of a 96-well plate is provided with 100 μL of Hank's buffer. Subsequently, in accordance with the operational conditions set forth below in Table 4, the zebrafish prepared in the way previously described under subsection 2 of section A (Materials used during experimentation) were added respectively to the wells, to which 100 μL of the to-be-analyzed candidates, i.e., arbutin, N-phenylthiourea and kojic acid solutions of various concentrations, were added so as to result in the final concentrations as shown in Table 4. The 96-well plate was then disposed in an incubator under a controlled temperature of 28.5 degrees Celsius, and a controlled light-dark cycle of 14 hours of light and 10 hours of darkness for a 48-hour breeding period to allow the embryos to develop into zebrafish larvae. It should be noted herein that the above procedure was for preparation of a plurality of the “second groups of zebrafish” (i.e., test groups (A2˜A7, N2˜N7, K2˜K7)), while each of the “first groups of zebrafish” (each for a kind of the to-be-tested candidate) were prepared using the same breeding process without the administration of the to-be-analyzed candidates so as to form control groups (A1, N1, K1).
A tricaine methanesulfonate solution (MS-222) with a concentration of 168 ppm was used to anesthetize the zebrafish larvae prepared in Procedure A. Next, a depression slide (Micro Scientific Laboratories, Inc., U.S.A., Cat. No. MM-104SC) containing 1% methyl cellulose (Sigma, Cat. No. M0512) was used to mount the zebrafish. Subsequently, Leica Z16 APO stereomicroscope was used to acquire images of the zebrafish with a 25× magnification rate and a 3.372 ms exposure time.
Image Scion was used to determine the mean of the number of “valid pixels” (i.e., pixels whose grayscale levels fall within a predefined range) in the images corresponding to the zebrafish of the same group. […]

zebrafish larvae [2] = assay: Zebrafish larvae skin-whitening screen, number of valid pixels by ImageJ version 1.40 g; type: in vivo, zebrafish (Danio Rerio); conditions: groups A1-A7, FIG. 14 vs FIG. 11; ImageJ threshold 0-85
Procedure: • (2) ImageJ version 1.40 g (ImageJ, National Institute of Health, Bethesda, Md., U.S.A.) with operation parameters set in Table 3 below for defining the predefined range for a pixel to be considered a “valid pixel”.
First, arbutin (Sigma, Cat. No. A4256), N-phenylthiourea (Sigma, Cat. No. P7629) and kojic acid (Sigma, Cat. No. K3125) were respectively dissolved in a 2% dimethyl sulfoxide (DMSO) solution prepared from Hank's buffer to result in arbutin solutions with concentrations of 0.1 mM, 0.2 mM, 1 mM, 2 mM, 10 mM and 20 mM, N-phenylthiourea solutions with concentrations of 0.002 mM, 0.02 mM, 0.2 mM, 0.4 mM, 1 mM and 2 mM, and kojic acid solutions with concentrations of 0.2 mM, 1 mM, 2 mM, 20 mM, 40 mM and 100 mM, respectively. Next, each well of a 96-well plate is provided with 100 μL of Hank's buffer. Subsequently, in accordance with the operational conditions set forth below in Table 4, the zebrafish prepared in the way previously described under subsection 2 of section A (Materials used during experimentation) were added respectively to the wells, to which 100 μL of the to-be-analyzed candidates, i.e., arbutin, N-phenylthiourea and kojic acid solutions of various concentrations, were added so as to result in the final concentrations as shown in Table 4. […]

NC(=S)Nc1ccccc1 [N-phenylthiourea]
mean of the number of "valid pixels" versus concentration of the administered candidate (zebrafish larvae [1]): decreases with the concentration | concentration giving statistically significant reduction of "valid pixels" in the images of the zebrafish vs control group (zebrafish larvae [1]): at least 0.01 mM | conclusion of the screening as skin-whitening agent (zebrafish larvae [1]): suitable as skin-whitening agents

OC[C@H]1O[C@@H](Oc2ccc(O)cc2)[C@H](O)[C@@H](O)[C@@H]1O [arbutin]
mean of the number of "valid pixels" versus concentration of the administered candidate (zebrafish larvae [1]): decreases with the concentration | concentration giving statistically significant reduction of "valid pixels" in the images of the zebrafish vs control group (zebrafish larvae [1]): at least 0.05 mM | conclusion of the screening as skin-whitening agent (zebrafish larvae [1]): suitable as skin-whitening agents | comparison of results obtained using ImageJ version 1.40 g with those using Image Scion (zebrafish larvae [2]): no significant difference

O=c1cc(CO)occ1O [kojic acid]
mean of the number of "valid pixels" versus concentration of the administered candidate (zebrafish larvae [1]): decreases with the concentration | concentration giving statistically significant reduction of "valid pixels" in the images of the zebrafish vs control group (zebrafish larvae [1]): at least 10 mM | conclusion of the screening as skin-whitening agent (zebrafish larvae [1]): suitable as skin-whitening agents
